{"source": "patent US11339171B2", "about": "“MDM2 inhibitors” (Gan & Lee Pharmaceuticals, priority 2017, dated 2022)", "key": {"MDM2": {"biological_target": "T1, MDM2 (Homo sapiens, UniProt Q00987)", "T1 construct": "made in house", "T1 sequence (Q00987 whole entry)": "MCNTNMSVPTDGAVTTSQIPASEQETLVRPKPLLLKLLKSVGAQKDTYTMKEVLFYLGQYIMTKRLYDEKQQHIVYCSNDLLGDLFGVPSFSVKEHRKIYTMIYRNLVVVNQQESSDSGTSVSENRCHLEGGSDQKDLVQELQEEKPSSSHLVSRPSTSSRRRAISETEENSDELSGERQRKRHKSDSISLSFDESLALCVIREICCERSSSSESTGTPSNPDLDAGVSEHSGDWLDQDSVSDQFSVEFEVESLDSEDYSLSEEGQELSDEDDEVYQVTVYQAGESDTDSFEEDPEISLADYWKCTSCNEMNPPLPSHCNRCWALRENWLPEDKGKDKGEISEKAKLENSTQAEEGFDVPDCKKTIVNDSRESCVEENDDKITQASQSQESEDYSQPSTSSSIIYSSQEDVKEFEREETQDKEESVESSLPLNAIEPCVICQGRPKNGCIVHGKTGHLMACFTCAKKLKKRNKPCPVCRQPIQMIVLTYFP", "test": "Inhibition test of MDM2-P53 (GST-MDM2, Biotin-P53, Anti-GST-Tb, SA-XL665)", "format": "binding", "how_it_was_run": "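HTRF-type assay using 4 nM GST-MDM2 (final), Biotin-P53, SA-XL665 and anti-GST-Tb in PBS with 0.1% BSA, 5 mM DTT and 1 mM AEBSF. Compounds in 5-fold serial dilutions over twelve points; incubation 90 min at 25° C with shaking before plate-reader read-out.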"}, "[1]": {"test": "Pharmacokinetics in ICR mice after intravenous and intragastric administration", "format": "in vivo", "conditions": "for MRT last: read-out: MRT(0-t); for MRT inf: read-out: MRT(0-∞); for Vd: read-out: Vz", "how_it_was_run": "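Plasma concentrations by LC-MS/MS (range 1 to 2000 ng/ml) following single intravenous (2 mg/kg) or oral gavage (5 mg/kg) dosing of fasted male ICR mice, three per group. Vehicle 5% DMSO + 40% PEG400 + 55% (10% HP-β-CD in saline); standard PK parameters including bioavailability calculated.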"}, "[2]": {"system": "human osteosarcoma cell line SJSA-1", "test": "Inhibition of proliferation of human osteosarcoma cell line SJSA-1 (DAPI staining, In Cell Analyzer)", "conditions": "Homo sapiens, SJSA-1, 72 h, read-out: IC50 (nM), inhibitory activity on proliferation of human osteosarcoma cell line SJSA-1, SJSA-1, incubated 72 h"}, "[3]": {"conditions": "ICR mice, IV 2 mg/kg, individual animal, 2 mg/kg"}, "[4]": {"conditions": "ICR mice, PO 5 mg/kg, individual animal, 5 mg/kg"}, "[5]": {"conditions": "male, ICR, mouse, plasma, iv, 2 mg/kg, ICR mice, IV 2 mg/kg, individual animal"}, "[6]": {"conditions": "male, ICR, mouse, plasma, iv, 2 mg/kg, ICR mice, IV 2 mg/kg, mean of 3 animals"}, "[7]": {"conditions": "male, ICR, mouse, plasma, po, 5 mg/kg, ICR mice, PO 5 mg/kg, individual animal"}, "[8]": {"conditions": "male, ICR, mouse, plasma, po, 5 mg/kg, ICR mice, PO 5 mg/kg, mean of 3 animals"}}, "note": "pIC50: −log10 of the molar value. Values joined by “and” are separate entries in the source; they are usually repeats but may differ in a detail not shown here. Equal values may be shown once. Read-outs that look alike come from different tables or passages of the source.", "data": [{"smiles": "COc1cc(C(C)C)ccc1-c1nc2c(n1C(C)C)[C@@]1(C(=O)Nc3cc(Cl)ccc31)N(c1cc(Cl)ccc1C)C2=O", "note": "[Example S-32, (S)-6-chloro-5′-(5-chloro-2-methylphenyl)-3′-isopropyl-2′-(4-isopropyl-2-methoxyphenyl)-3′H-spiro[dihydroindole-3,4′-pyrrolo[3,4-d]imidazole]-2,6′(5′H)-dione]", "values": [{"measurement": "pIC50", "setting": "MDM2", "result": 8.41}, {"measurement": "AUC(0-t)", "setting": "[1]; [3]", "result": "3859.04 ng·h/mL and 4699.29 ng·h/mL"}, {"measurement": "AUC(0-∞)", "setting": "[1]; [3]", "result": "4004.98 ng·h/mL and 4854.66 ng·h/mL"}, {"measurement": "CL", "setting": "[1]; [3]", "result": "8.323 mL/min/kg and 6.8663 mL/min/kg"}, {"measurement": "Cmax", "setting": "[1]; [3]", "result": "1902.13 ng/mL and 2766.01 ng/mL"}, {"measurement": "MRT(0-t)", "setting": "[1]; [3]", "result": "1.29 h and 1.32 h"}, {"measurement": "MRT(0-∞)", "setting": "[1]; [3]", "result": 1.53, "unit": "h"}, {"measurement": "Tmax", "setting": "[1]; [3]", "result": "0.50 h and 0.08 h and 0.25 h"}, {"measurement": "Vz", "setting": "[1]; [3]", "result": "0.90833 L/kg and 0.7302 L/kg"}, {"measurement": "t1/2", "setting": "[1]; [3]", "result": "1.26 h and 1.23 h"}, {"measurement": "AUC(0-t)", "setting": "[1]; [4]", "result": "10704.89 ng·h/mL and 8458.06 ng·h/mL"}, {"measurement": "AUC(0-∞)", "setting": "[1]; [4]", "result": "11027.74 ng·h/mL and 9168.53 ng·h/mL"}, {"measurement": "Cmax", "setting": "[1]; [4]", "result": "1578.70 ng/mL and 3356.31 ng/mL and 2518.33 ng/mL"}, {"measurement": "MRT(0-t)", "setting": "[1]; [4]", "result": "2.24 h and 2.48 h"}, {"measurement": "MRT(0-∞)", "setting": "[1]; [4]", "result": "2.48 h and 3.14 h"}, {"measurement": "t1/2", "setting": "[1]; [4]", "result": "1.51 h and 2.07 h"}, {"measurement": "AUC(0-inf)", "setting": "[1]; [5]", "result": 7630, "unit": "ng·h/mL"}, {"measurement": "clearance", "setting": "[1]; [5]", "result": 4.37, "unit": "mL/min/kg"}, {"measurement": "AUC(0-t)", "setting": "[1]; male, ICR, mouse, plasma, iv, 2 mg/kg, ICR mice, IV 2 mg/kg, individual animal, read-out: AUC(0-t)", "result": 7200, "unit": "ng·h/mL"}, {"measurement": "Cmax", "setting": "[1]; male, ICR, mouse, plasma, iv, 2 mg/kg, ICR mice, IV 2 mg/kg, individual animal, read-out: Cmax", "result": 2450, "unit": "ng/mL"}, {"measurement": "MRT last", "setting": "[1]; [5]", "result": 1.61, "unit": "h"}, {"measurement": "MRT inf", "setting": "[1]; [5]", "result": 1.97, "unit": "h"}, {"measurement": "Vd", "setting": "[1]; [5]", "result": 0.543, "unit": "L/kg"}, {"measurement": "half-life", "setting": "[1]; male, ICR, mouse, plasma, iv, 2 mg/kg, ICR mice, IV 2 mg/kg, individual animal, read-out: t1/2 (converted)", "result": 1.44, "unit": "h"}, {"measurement": "AUC(0-inf)", "setting": "[1]; [6]", "result": 5500, "unit": "ng·h/mL"}, {"measurement": "clearance", "setting": "[1]; [6]", "result": 6.52, "unit": "mL/min/kg"}, {"measurement": "AUC(0-t)", "setting": "[1]; male, ICR, mouse, plasma, iv, 2 mg/kg, ICR mice, IV 2 mg/kg, mean of 3 animals, read-out: AUC(0-t)", "result": 5250, "unit": "ng·h/mL"}, {"measurement": "Cmax", "setting": "[1]; male, ICR, mouse, plasma, iv, 2 mg/kg, ICR mice, IV 2 mg/kg, mean of 3 animals, read-out: Cmax", "result": 2370, "unit": "ng/mL"}, {"measurement": "MRT last", "setting": "[1]; [6]", "result": 1.41, "unit": "h"}, {"measurement": "MRT inf", "setting": "[1]; [6]", "result": 1.68, "unit": "h"}, {"measurement": "Tmax", "setting": "[1]; male, ICR, mouse, plasma, iv, 2 mg/kg, ICR mice, IV 2 mg/kg, mean of 3 animals, read-out: Tmax", "result": 0.278, "unit": "h"}, {"measurement": "Vd", "setting": "[1]; [6]", "result": 0.727, "unit": "L/kg"}, {"measurement": "half-life", "setting": "[1]; male, ICR, mouse, plasma, iv, 2 mg/kg, ICR mice, IV 2 mg/kg, mean of 3 animals, read-out: t1/2 (converted)", "result": 1.31, "unit": "h"}, {"measurement": "AUC(0-inf)", "setting": "[1]; [7]", "result": 7100, "unit": "ng·h/mL"}, {"measurement": "AUC(0-t)", "setting": "[1]; male, ICR, mouse, plasma, po, 5 mg/kg, ICR mice, PO 5 mg/kg, individual animal, read-out: AUC(0-t)", "result": 6020, "unit": "ng·h/mL"}, {"measurement": "MRT last", "setting": "[1]; [7]", "result": 2.79, "unit": "h"}, {"measurement": "MRT inf", "setting": "[1]; [7]", "result": 4.22, "unit": "h"}, {"measurement": "Tmax", "setting": "[1]; male, ICR, mouse, plasma, po, 5 mg/kg, ICR mice, PO 5 mg/kg, individual animal, read-out: Tmax", "result": 1, "unit": "h"}, {"measurement": "half-life", "setting": "[1]; male, ICR, mouse, plasma, po, 5 mg/kg, ICR mice, PO 5 mg/kg, individual animal, read-out: t1/2 (converted)", "result": 2.89, "unit": "h"}, {"measurement": "AUC(0-inf)", "setting": "[1]; [8]", "result": 9100, "unit": "ng·h/mL"}, {"measurement": "AUC(0-t)", "setting": "[1]; male, ICR, mouse, plasma, po, 5 mg/kg, ICR mice, PO 5 mg/kg, mean of 3 animals, read-out: AUC(0-t)", "result": 8390, "unit": "ng·h/mL"}, {"measurement": "Cmax", "setting": "[1]; male, ICR, mouse, plasma, po, 5 mg/kg, ICR mice, PO 5 mg/kg, mean of 3 animals, read-out: Cmax", "result": 2480, "unit": "ng/mL"}, {"measurement": "MRT last", "setting": "[1]; [8]", "result": 2.5, "unit": "h"}, {"measurement": "MRT inf", "setting": "[1]; [8]", "result": 3.28, "unit": "h"}, {"measurement": "Tmax", "setting": "[1]; male, ICR, mouse, plasma, po, 5 mg/kg, ICR mice, PO 5 mg/kg, mean of 3 animals, read-out: Tmax", "result": 1, "unit": "h"}, {"measurement": "half-life", "setting": "[1]; male, ICR, mouse, plasma, po, 5 mg/kg, ICR mice, PO 5 mg/kg, mean of 3 animals, read-out: t1/2 (converted)", "result": 2.16, "unit": "h"}, {"measurement": "AUC(0-t)", "setting": "[1]; male, ICR, mouse, plasma, po, 5 mg/kg, oral intragastric administration 5 mg/kg, read-out: AUC0-t", "result": 8390, "unit": "ng·h/mL"}, {"measurement": "half-life", "setting": "[1]; male, ICR, mouse, plasma, po, 5 mg/kg, oral intragastric administration 5 mg/kg, read-out: half-life (converted)", "result": 2.16, "unit": "h"}, {"measurement": "bioavailability", "setting": "[1]; male, mouse, plasma, ICR mice, PO 5 mg/kg vs IV 2 mg/kg, from mean values, read-out: F* (bioavailability)", "result": 63.9, "unit": "%"}, {"measurement": "IC50", "setting": "[2]", "result": 10.1, "unit": "nM"}]}]}
